Test results taken from patent US7713937B2, “Synthetic peptide amides and dimeric forms thereof” (Cara Therapeutics, Inc., priority 2006, dated 2010).
Values joined by “and” are separate entries in the source; they are usually repeats but may differ in a detail not shown here. Identical values can stand only once. Square brackets hold non-standard residues; d marks the D form. Peptide text beside a SMILES is read from it. * marks the point of attachment. Piperidinyl(4-(1-Pro-OH)) = O=C(O)[C@@H]1CCCN1C1CCN(*)CC1; d(hArg) = N=C(N)NCCCC[C@@H](N)C(=O)O

Legend:
[1] = biological target: T1, mouse kappa opioid receptor (mKOR) (Mus musculus, UniProt P33534); assay: cell-based; conditions: for Emax: read-out: mKOR Efficacy(%)
T1 construct: Stimulation of Endogenous Mouse Kappa-Opioid Receptor in R1.G1 Cells; host or cells: R1.G1 mouse thymoma cells
T1 sequence (P33534 whole entry): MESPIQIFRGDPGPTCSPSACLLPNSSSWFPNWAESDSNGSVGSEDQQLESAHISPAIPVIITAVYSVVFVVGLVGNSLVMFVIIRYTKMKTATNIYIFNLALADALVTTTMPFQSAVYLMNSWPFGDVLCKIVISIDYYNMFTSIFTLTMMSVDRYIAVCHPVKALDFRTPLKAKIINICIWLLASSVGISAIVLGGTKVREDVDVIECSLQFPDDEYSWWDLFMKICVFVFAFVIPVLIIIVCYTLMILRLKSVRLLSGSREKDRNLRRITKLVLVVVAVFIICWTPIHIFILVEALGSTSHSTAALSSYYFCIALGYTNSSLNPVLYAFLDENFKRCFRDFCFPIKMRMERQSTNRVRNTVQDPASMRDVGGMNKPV

[2] = biological target: T2, human kappa opioid receptor (hKOR) (Homo sapiens, UniProt P41145); assay: cell-based; conditions: for Emax: HEK293, read-out: hKOR Efficacy(%)
T2 construct: expressed in transfected cells; host or cells: HEK-293 cells, transient transfection with Fugene6
T2 sequence (P41145 whole entry): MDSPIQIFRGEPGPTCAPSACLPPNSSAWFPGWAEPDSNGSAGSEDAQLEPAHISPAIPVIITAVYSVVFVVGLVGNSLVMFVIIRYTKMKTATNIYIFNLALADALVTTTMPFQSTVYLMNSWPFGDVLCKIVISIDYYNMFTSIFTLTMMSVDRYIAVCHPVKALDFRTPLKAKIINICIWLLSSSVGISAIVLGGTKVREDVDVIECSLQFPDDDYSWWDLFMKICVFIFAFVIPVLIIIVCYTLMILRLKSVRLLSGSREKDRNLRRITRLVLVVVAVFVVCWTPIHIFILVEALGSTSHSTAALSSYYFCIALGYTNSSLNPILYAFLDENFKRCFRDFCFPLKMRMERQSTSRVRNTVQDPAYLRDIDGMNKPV

[3] = tested on: CYP1A; assay: Cytochrome P450 CYP1A inhibition in human liver microsomes; assay type: in vitro ADME; conditions: percent remaining CYP activity, 10 μM test compound, (54) in Expt 1 and Expt 2
Protocol: Inhibition of cytochrome P450 oxidase isozymes CYP1A, CYP2C9, CYP2C19, CYP2D6 and CYP3A4 by synthetic peptide amide compounds of the invention was determined according to the following methods performed by Cerep (Seattle, Wash.):
In the cytochrome P450 CYP1A assay, human liver microsomes (0.2 mg/ml protein) were incubated for 15 minutes at 37° C. with 10 μM test compound, 1 μM ethoxyresorufin, 1.3 mM NADP, 3.3 mM glucose-6-phosphate and 0.4 U/ml glucose-6-phosphate dehydrogenase. In the absence of test compound, the ethoxyresorufin added as substrate is oxidized to resorufin, and in the presence of an inhibitor of the CYP isozyme, the amount of resorufin produced is reduced. Furafylline was used as a reference inhibitor.
In each assay, the percent inhibition of the cytochrome P450 CYP P450 isozyme was determined as one hundred times the ratio of (1-minus the amount of product in the sample in the presence of the test compound) divided by the amount of product in the sample containing untreated isozyme.

[4] = tested on: ICR mice; assay: Acetic acid-induced writhing assay in mice; assay type: in vivo, mouse; conditions: for ED50 (mg/kg, iv, 15 min post-dose): mice
[5] = Inhibition of locomotion in mice (locomotion reduction assay, sedation); conditions: mouse, in vivo, sc, subcutaneous, sedative effect
Protocol: To determine the potential sedative effect of test compounds, the extent of locomotion after the administration of the test compound or vehicle control can be determined and compared with a specialized apparatus designed for this purpose (Opto-Varimex Activity Meter). At the start of each experiment, each mouse was weighed and examined to determine good health. […] The subcutaneous injection was performed in the back of the neck of the mouse, pinched in a “tent” to allow proper access for the syringe needle. After injection, each animal was placed individually in Plexiglas boxes (43 cm×43 cm) inside the Opto-Varimex Activity Meter apparatus. Before the animal was placed in the apparatus, a thin layer of SANI-CHIPS rodent bedding was placed on the bottom of the Plexiglas box to provide a comfortable environment. Each Opto-Varimex Activity Meter apparatus was then turned on and data acquisition begun by the ATM3 Auto-Track System. The data were processed and results expressed in the same way as described for the writhing assay data above.

[6] = biological target: CYP2C9 (Homo sapiens, UniProt P11712); assay: Cytochrome P450 CYP2C9 inhibition in human liver microsomes; conditions: percent remaining CYP activity, 10 μM test compound, (54) in Expt 1 and Expt 2
CYP2C9, sequence (P11712 whole entry): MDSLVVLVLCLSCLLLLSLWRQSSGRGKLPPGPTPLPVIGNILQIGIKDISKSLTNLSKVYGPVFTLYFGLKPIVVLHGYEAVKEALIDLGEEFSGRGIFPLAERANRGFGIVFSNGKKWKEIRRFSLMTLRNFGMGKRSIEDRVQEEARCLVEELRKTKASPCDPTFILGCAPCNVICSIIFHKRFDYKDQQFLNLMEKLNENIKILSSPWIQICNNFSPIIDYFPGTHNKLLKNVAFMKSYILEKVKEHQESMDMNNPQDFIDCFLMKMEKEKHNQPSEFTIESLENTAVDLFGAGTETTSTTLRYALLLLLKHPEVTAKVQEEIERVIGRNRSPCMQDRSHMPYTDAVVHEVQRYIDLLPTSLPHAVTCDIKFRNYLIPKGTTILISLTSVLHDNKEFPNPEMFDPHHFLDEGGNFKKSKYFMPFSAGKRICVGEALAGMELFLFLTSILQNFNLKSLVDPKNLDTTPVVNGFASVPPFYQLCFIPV

[7] = biological target: CYP2D6 (Homo sapiens, UniProt P10635); assay: Cytochrome P450 CYP2D6 inhibition in human liver microsomes; conditions: percent remaining CYP activity, 10 μM test compound, (54) in Expt 1 and Expt 2
CYP2D6, sequence (P10635 whole entry): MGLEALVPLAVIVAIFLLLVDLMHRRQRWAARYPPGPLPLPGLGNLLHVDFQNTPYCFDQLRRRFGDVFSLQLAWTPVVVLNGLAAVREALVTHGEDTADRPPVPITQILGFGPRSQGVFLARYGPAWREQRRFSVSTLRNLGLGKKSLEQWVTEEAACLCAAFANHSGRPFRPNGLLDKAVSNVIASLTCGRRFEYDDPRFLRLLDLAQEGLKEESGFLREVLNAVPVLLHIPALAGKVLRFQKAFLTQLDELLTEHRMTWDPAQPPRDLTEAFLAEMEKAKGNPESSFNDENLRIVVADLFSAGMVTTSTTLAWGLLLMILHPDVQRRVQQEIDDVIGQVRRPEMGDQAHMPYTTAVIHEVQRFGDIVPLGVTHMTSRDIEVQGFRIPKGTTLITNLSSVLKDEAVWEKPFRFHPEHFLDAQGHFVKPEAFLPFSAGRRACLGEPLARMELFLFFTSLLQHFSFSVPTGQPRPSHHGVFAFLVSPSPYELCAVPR

[8] = biological target: CYP2C19 (Homo sapiens, UniProt P33261); assay: Cytochrome P450 CYP2C19 inhibition in human liver microsomes; conditions: percent remaining CYP activity, 10 μM test compound, (54) in Expt 1 and Expt 2
CYP2C19, sequence (P33261 whole entry): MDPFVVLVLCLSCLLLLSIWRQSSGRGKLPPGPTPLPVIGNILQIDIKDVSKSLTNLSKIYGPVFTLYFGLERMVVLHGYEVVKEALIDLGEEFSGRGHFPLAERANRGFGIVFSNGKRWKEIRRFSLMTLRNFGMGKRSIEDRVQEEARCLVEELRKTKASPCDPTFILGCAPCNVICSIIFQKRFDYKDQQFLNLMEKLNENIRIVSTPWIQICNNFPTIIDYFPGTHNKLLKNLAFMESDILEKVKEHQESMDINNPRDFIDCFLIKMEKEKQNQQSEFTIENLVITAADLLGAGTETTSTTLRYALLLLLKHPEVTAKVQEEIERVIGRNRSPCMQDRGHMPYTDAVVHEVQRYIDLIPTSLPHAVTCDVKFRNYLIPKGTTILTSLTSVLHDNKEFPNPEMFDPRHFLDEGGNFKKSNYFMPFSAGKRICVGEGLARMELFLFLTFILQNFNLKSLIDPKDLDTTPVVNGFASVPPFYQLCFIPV

[9] = biological target: CYP3A4 (Homo sapiens, UniProt P08684); assay: Cytochrome P450 CYP3A4 inhibition in human liver microsomes (midazolam); conditions: percent remaining CYP activity, 10 μM test compound, (54) in Expt 1 and Expt 2
CYP3A4, sequence (P08684 whole entry): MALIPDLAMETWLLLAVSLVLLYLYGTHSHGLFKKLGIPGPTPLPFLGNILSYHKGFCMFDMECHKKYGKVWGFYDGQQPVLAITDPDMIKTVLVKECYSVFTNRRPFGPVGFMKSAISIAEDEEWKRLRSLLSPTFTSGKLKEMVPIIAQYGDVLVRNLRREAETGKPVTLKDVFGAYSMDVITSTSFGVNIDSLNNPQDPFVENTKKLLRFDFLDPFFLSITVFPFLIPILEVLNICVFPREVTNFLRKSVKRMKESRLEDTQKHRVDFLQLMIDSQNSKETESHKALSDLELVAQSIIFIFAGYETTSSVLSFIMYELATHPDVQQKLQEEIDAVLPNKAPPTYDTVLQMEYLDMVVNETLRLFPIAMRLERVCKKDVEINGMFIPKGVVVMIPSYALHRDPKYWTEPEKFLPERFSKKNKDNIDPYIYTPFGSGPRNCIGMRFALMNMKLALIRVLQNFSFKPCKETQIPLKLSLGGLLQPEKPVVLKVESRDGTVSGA

[10] = Pharmacokinetics in cynomolgus monkeys, plasma half life; conditions: male, cynomolgus monkey, iv
[11] = Caco-2 (TC7 subclone) membrane permeability, apical-to-basolateral; conditions: human
[12] = tested on: albino New Zealand strain rabbits; assay: Capsaicin-induced ocular pain, palpebral opening; assay type: in vivo, rabbit; conditions: Table VI, 10 mg/ml instilled, 10-30 min. post capsaicin, five animals
[13] = biological target: T3, human mu opioid receptor (Homo sapiens, UniProt P35372); assay: Similar assay for potency on the human mu opioid receptor; assay type: cell-based
T3 construct: expressed in transfected cells
T3 sequence (P35372 whole entry): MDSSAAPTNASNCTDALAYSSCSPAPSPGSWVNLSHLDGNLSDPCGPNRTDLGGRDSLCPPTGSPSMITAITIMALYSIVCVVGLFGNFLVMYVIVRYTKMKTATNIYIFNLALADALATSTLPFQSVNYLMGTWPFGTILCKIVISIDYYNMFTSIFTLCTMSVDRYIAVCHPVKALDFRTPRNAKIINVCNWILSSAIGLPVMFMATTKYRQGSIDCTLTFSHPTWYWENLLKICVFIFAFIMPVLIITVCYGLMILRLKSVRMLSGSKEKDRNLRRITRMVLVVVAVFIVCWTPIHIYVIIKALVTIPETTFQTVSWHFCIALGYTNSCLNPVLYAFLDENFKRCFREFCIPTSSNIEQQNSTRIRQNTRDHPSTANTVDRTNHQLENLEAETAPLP
Protocol: Synthetic peptide amides of the invention were tested in a similar assay for potency on the human mu opioid receptor.
The synthetic peptide amide (53) was tested in a similar assay for potency on the human mu opioid receptor.

| SMILES | EC50 [1] [nM] | Emax [1] [%] | EC50 [2] [nM] | Emax [2] [%] | also measured |
| --- | --- | --- | --- | --- | --- |
| CC(C)C[C@@H](NC(=O)[C@@H](Cc1ccccc1)NC(=O)[C@H](N)Cc1ccccc1)C(=O)N[C@H](CCCN)C(=O)N1CCCN(C2=NCCN2)CC1 [Compound (54), D-Phe-D-Phe-D-Leu-D-Orn-[4-(4,5-dihydro-1H-imidazol-2-yl)homopiperazine amide]] | 0.056 | 99 | 0.13 | 90 | Percent Activity of Cytochrome P450 CYP1A [3]: 97.1% and 95.8%; ED50 in the acetic acid-induced writhing assay ([4]; subcutaneous, ICR mice): 0.074 mg/kg; ED50 [5]: 3.17 mg/kg; Percent Activity of Cytochrome P450 CYP2C9 [6]: 99.2% and 98.2%; Percent Activity of Cytochrome P450 CYP2D6 [7]: 98.4% and 98.2%; Percent Activity of Cytochrome P450 CYP2C19 [8]: 94.1% and 97.8%; Percent Activity of Cytochrome P450 CYP3A4 [9]: 94.7% and 95.9% |
| CC(C)C[C@@H](NC(=O)[C@@H](Cc1ccccc1)NC(=O)[C@H](N)Cc1ccccc1)C(=O)N[C@H](CCCCN)C(=O)N1CCC(N)(C(=O)O)CC1 [Compound (2), D-Phe-D-Phe-D-Leu-D-Lys-[ω(4-aminopiperidine-4-carboxylic acid)]-OH] | 0.048 | 96 | 0.16 | 99 | ED50 (mg/kg, iv, 15 min post-dose) ([4]; iv): 0.07 mg/kg; % MPE (240 min post-ED90) ([4]; iv, 240 min post-ED90): 81 ± 4%; % MPE (300 min post-ED90) ([4]; iv, 300 min post-ED90): 84 ± 4% |
| CC(C)C[C@@H](NC(=O)[C@@H](Cc1ccccc1)NC(=O)[C@H](N)Cc1ccccc1)C(=O)N[C@H](CCCCNC(=N)N)C(=O)N1CCC(N2CCC[C@H]2C(=O)O)CC1 [Compound (5), D-Phe-D-Phe-D-Leu-D-Har-[N-(4-piperidinyl)-L-proline]-OH] (H-[dF][dF][dL][d(hArg)]-{Piperidinyl(4-(1-Pro-OH))}) | 0.034 | 89 | 0.17 | 98 | ED50 (mg/kg, iv, 15 min post-dose) ([4]; iv): 0.01 mg/kg; % MPE (180 min post-ED90) ([4]; iv, 180 min post-ED90): 54 ± 10% |
| C/N=C(/N)N1CCCN(C(=O)[C@@H](CCCN)NC(=O)[C@@H](CC(C)C)NC(=O)[C@@H](Cc2ccccc2)NC(=O)[C@H](N)Cc2ccccc2)CC1 [Compound (52), D-Phe-D-Phe-D-Leu-D-Orn-[4-(N-methyl)amidino-homopiperazine amide]] | 0.035 | 101 | 0.18 | 96 | half-life [10]: 1.15 h |
| CNC(=C[N+](=O)[O-])NCCSCc1ccc(CN(C)C)o1 [Ranitidine, ranitidine] |  |  |  |  | Papp A→B at 60 min, 10 μM [11]: 0.5 ×10⁻⁶ cm/s |
| CC(C)C[C@@H](NC(=O)[C@@H](Cc1ccccc1)NC(=O)[C@H](N)Cc1ccccc1)C(=O)N[C@H](CCCCN)C(=O)N1CCC(N2CCC[C@H]2C(=O)O)CC1 [Compound (4), D-Phe-D-Phe-D-Leu-D-Lys-[N-(4-piperidinyl)-L-proline]-OH] | 0.075 | 94 | 0.15 | 92 | Mean (% Control) palpebral opening [12]: 56.7 % Control |
| CC(C)C[C@@H](NC(=O)[C@@H](Cc1ccccc1)NC(=O)[C@H](N)Cc1ccccc1)C(=O)N[C@H](CCCN)C(=O)N1CCCN(C(=N)N)CC1 [Compound (53), D-Phe-D-Phe-D-Leu-D-Orn-[4-amidinohomopiperazine amide]] | 0.03 |  | 0.15 | 103 | EC50 [13]: ≥ 1000 nM |
